Legend:
[1] = Directional release from hydrogel coated with PCL on one side, in 3% alginate gel; type: physicochemical
Experimental: Release of methylene blue from the hydrogel was simulated in a 3% alginate gel, cross-linked with calcium chloride to obtain a tissue-like consistency. Only the top part of the hydrogel was coated with PCL. The samples were inspected at 0, 1, 2, and 3 hours. Hydrogels were positioned vertically to eliminate any effect of gravity on the direction of release. […] The same experiment was performed with bupivacaine.

[2] = local anaesthetic; cited from earlier work

Structure (SMILES): CCCCN1CCCCC1C(=O)Nc1c(C)cccc1C (stereo not drawn) [bupivacaine]
- cumulative release ([1]; from the PCL-covered direction, after 8 hours): about 2 mg
- time to reach cumulative release of about 2 mg ([1]; non-PCL covered direction): ≤ 1 h
- duration of its effect [2]: approx. 8 hours
